Measurements taken from ChEMBL document CHEMBL3608230, “Design, synthesis and RON receptor tyrosine kinase inhibitory activity of new head groups analogs of LCRF-0004” (Bioorg Med Chem Lett, 2015).

Assays:
[1] = molecular target: Macrophage-stimulating protein receptor (Homo sapiens, UniProt Q04912); assay: Inhibition of human RON
[2] = molecular target: Hepatocyte growth factor receptor (Homo sapiens, UniProt P08581); assay: Inhibition of c-Met phosphorylation in human MKN45 cells; type: cell-based, MKN-45
Hepatocyte growth factor receptor, sequence (P08581 whole entry): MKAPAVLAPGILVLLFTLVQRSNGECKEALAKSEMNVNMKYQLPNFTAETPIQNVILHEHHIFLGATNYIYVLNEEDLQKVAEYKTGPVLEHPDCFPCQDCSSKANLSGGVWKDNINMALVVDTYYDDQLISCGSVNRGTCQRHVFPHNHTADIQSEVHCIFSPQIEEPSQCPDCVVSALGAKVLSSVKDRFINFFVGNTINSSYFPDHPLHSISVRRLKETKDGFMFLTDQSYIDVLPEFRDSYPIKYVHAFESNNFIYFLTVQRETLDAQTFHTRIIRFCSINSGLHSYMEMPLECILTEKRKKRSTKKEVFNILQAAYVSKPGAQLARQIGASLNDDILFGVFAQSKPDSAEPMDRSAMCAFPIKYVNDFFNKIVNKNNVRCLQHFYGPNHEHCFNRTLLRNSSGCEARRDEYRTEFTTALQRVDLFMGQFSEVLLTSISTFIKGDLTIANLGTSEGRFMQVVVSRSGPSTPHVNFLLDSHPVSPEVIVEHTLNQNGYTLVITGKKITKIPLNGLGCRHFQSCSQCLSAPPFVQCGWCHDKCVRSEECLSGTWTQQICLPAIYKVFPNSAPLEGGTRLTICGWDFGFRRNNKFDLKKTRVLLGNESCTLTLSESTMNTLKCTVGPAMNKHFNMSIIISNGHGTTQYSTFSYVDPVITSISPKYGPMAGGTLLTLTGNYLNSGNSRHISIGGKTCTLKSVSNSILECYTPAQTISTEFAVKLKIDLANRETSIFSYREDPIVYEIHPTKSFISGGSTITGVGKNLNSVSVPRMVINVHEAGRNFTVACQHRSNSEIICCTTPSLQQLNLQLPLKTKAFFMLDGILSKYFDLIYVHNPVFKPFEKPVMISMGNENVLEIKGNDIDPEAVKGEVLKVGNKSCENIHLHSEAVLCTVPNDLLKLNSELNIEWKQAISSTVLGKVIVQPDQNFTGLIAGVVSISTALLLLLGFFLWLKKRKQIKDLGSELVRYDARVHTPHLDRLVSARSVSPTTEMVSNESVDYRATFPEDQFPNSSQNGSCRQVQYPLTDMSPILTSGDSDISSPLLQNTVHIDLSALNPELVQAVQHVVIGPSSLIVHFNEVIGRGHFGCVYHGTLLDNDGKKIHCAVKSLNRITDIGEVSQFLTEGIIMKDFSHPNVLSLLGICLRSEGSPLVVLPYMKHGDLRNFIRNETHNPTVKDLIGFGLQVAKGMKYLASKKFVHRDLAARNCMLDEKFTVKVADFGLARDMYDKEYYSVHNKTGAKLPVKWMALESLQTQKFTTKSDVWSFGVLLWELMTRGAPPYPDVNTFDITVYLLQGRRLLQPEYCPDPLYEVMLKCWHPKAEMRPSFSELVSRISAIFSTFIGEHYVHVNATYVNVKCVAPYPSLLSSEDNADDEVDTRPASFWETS

Macrophage-stimulating protein receptor, sequence (Q04912 25-304 limits assumed): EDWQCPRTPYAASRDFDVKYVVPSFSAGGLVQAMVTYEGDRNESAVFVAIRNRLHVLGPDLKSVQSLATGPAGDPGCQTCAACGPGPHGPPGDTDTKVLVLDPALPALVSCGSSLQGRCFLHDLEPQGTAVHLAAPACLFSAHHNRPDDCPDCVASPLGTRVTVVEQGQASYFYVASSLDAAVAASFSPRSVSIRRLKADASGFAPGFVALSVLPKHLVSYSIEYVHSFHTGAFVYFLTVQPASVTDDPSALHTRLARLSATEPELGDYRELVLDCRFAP
Macrophage-stimulating protein receptor, sequence (Q04912 310-1400 limits assumed): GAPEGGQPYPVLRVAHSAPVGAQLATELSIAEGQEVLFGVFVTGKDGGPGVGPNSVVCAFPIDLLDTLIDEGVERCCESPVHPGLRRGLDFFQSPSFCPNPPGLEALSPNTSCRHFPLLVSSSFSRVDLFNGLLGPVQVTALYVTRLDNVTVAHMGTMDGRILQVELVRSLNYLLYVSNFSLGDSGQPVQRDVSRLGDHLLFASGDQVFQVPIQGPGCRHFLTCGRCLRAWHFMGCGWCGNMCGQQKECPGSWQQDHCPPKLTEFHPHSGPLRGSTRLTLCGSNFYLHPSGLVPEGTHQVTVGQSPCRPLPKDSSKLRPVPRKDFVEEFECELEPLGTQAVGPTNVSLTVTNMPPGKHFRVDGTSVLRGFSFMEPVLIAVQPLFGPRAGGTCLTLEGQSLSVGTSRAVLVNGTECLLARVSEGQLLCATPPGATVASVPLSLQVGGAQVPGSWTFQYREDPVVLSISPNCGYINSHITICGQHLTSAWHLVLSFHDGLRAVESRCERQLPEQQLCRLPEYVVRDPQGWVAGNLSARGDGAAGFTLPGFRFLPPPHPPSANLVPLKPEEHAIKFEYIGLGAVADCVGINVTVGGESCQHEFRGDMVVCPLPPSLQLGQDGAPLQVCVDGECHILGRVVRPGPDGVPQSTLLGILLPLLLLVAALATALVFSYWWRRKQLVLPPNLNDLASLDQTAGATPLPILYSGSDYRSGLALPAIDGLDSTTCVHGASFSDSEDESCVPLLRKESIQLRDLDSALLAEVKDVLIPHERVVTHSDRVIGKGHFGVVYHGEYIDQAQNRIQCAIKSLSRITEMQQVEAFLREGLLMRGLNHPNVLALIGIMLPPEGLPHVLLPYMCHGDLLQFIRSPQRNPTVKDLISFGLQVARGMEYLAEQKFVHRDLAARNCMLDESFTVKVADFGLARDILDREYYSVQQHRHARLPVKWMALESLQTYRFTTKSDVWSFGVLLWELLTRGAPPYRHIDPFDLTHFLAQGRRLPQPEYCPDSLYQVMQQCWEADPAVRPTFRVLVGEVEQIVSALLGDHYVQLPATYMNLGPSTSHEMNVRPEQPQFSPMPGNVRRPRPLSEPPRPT

Structure (SMILES)	IC50 [1]	IC50 [2]
Cn1cnc(-c2cc3nccc(Oc4ccc(NC(=O)c5cc(-c6ccccc6)n(-c6ccccc6)c5)cc4F)c3s2)c1	101 nM	
COc1ccc(-c2c(C(=O)Nc3ccc(Oc4ccnc5cc(-c6cn(C)cn6)sc45)c(F)c3)cnn2-c2ccccc2)cc1		> 10000 nM
COc1cccc(-c2c(C(=O)Nc3ccc(Oc4ccnc5cc(-c6cn(C)cn6)sc45)c(F)c3)cnn2-c2ccccc2)c1	27 nM	
Cn1cnc(-c2cc3nccc(Oc4ccc(NC(=O)c5cnn(-c6ccccc6)c5-c5ccncc5)cc4F)c3s2)c1		> 10000 nM
